Data reported in US7078195B2, “Antibiotics AA-896” (Wyeth Holdings Corporation, priority 2001, dated 2006).

Legend:
Experiment in all cases: Broth dilution MIC
Format in all cases: cell-based
Conditions in all cases: Mueller-Hinton broth, 18 hours at 35° C.
[1] = test system: M. morganii GC 4531
Protocol: (§1) The in vitro antibacterial activity of AA-896-A1, AA-896-A2, AA-896-A3, AA-896-A4, AA-896-A5, AA-896-B1, AA-896-B2, AA-896-B3, AA-896-B4, AA-896-B5, AA-896-B6, AA-896-B7, AA-896-C1, AA-896-C2, AA-896-C3, AA-896-C4, AA-896-D1, AA896-D2 and AA-896-D3 is determined against a spectrum of Gram-positive and Gram-negative bacteria by a standard broth dilution method. Serial dilution of the compounds are made in Mueller-Hinton broth and inoculated with a bacterial suspension. The lowest concentration of compound that inhibited the growth of a bacterial strain after 18 hours of incubation at 35° C. is reported as the minimal inhibitory concentration (MIC) for that strain.

[2] = test system: E. coli GC 2203
Protocol: as §1

[3] = test system: CNS GC 4538
Protocol: as §1

[4] = test system: K. pneumoniae GC 4534
Protocol: as §1

[5] = test system: E. faecalis GC 4555
Protocol: as §1

[6] = test system: E. coli GC 3226
Protocol: as §1

[7] = test system: E. coli GC 4559
Protocol: as §1

[8] = test system: CNS GC 4537
Protocol: as §1

[9] = test system: S. aureus GC 4536
Protocol: as §1

[10] = test system: P. aeruginosa GC 2214
Protocol: as §1

[11] = test system: CNS GC 4547
Protocol: as §1

[12] = test system: E. coli GC 4560
Protocol: as §1

[13] = test system: E. faecalis GC 2242
Protocol: as §1

[14] = test system: E. faecalis GC 842
Protocol: as §1

[15] = test system: S. aureus GC 2216
Protocol: as §1

[16] = test system: E. cloacae GC 3783
Protocol: as §1

[17] = test system: P. rettgeri GC 4530
Protocol: as §1

[18] = test system: P. aeruginosa GC 4532
Protocol: as §1

[19] = test system: S. marcescens GC 4077
Protocol: as §1

[20] = test system: S. aureus GC 1131
Protocol: as §1

[21] = test system: E. faecalis GC 242
Protocol: as §1

SMILES | Antimicrobial Activity (MIC) [1] | Antimicrobial Activity (MIC) [2] | Antimicrobial Activity (MIC) [3] | Antimicrobial Activity (MIC) [4] | Antimicrobial Activity (MIC) [5] | Antimicrobial Activity (MIC) [6] | Antimicrobial Activity (MIC) [7] | Antimicrobial Activity (MIC) [8] | Antimicrobial Activity (MIC) [9] | Antimicrobial Activity (MIC) [10] | Antimicrobial Activity (MIC) [11] | Antimicrobial Activity (MIC) [12] | Antimicrobial Activity (MIC) [13] | Antimicrobial Activity (MIC) [14] | Antimicrobial Activity (MIC) [15] | Antimicrobial Activity (MIC) [16] | Antimicrobial Activity (MIC) [17] | Antimicrobial Activity (MIC) [18] | Antimicrobial Activity (MIC) [19] | Antimicrobial Activity (MIC) [20] | further results
CC(C)CC(NC(=O)C(NC(=O)NC(C(=O)O)C(C)C)C1CCNC(=N)N1)C(=O)NCCCNC(C(=O)O)C(OC1CC(O)C(CN)O1)C1OC(n2ccc(=O)[nH]c2=O)C(O)C1O [AA-896-D3, 5-O-[5-Amino-2,5-dideoxy-β-D-ribofuranosyl]-6-[[3-[2-[2-[[(1-carboxy-2-methylpropyl)-carbamoyl]amino]-2-(hexahydro-2-iminopyrimidin-4-yl)acetamido]-4-methylpentanamido]-propyl]amino]-1,6-dideoxy-1-(3,4-dihydro-2,4-dioxopyrimidin-1(2H)-yl)-β-D-heptofuran-uronic acid] | >32 µg/mL | 32 µg/mL | >32 µg/mL | >32 µg/mL | >32 µg/mL | 32 µg/mL | >32 µg/mL | >32 µg/mL | >32 µg/mL | 32 µg/mL | >32 µg/mL | 0.25 µg/mL | >32 µg/mL | >32 µg/mL | >32 µg/mL | >32 µg/mL | >32 µg/mL | >32 µg/mL | >32 µg/mL | >32 µg/mL | 
COC1C(OC(C(NCCCNC(=O)C(NC(=O)C(NC(=O)NC(C(=O)O)C(C)C)C2CCNC(=N)N2)C(OC(=O)CCCCC(C)C)C(C)C)C(=O)O)C2OC(n3ccc(=O)[nH]c3=O)C(O)C2O)OC(CN)C1O [AA-896-B6, 5-O-[5-Amino-5-deoxy-2-O-methyl-β-D-ribofuranosyl]-6-[[3-[2-[2-[[(1-carboxy-2-methyl-propyl)carbamoyl]amino]-2-(hexahydro-2-iminopyrimidin-4-yl)acetamido]-4-methyl-3-[(6-methylheptanoyl)oxy]pentanamido]propyl]amino]-1,6-dideoxy-1-(3,4-dihydro-2,4-dioxopyrimidin-1(2H)-yl)-β-D-heptofuranuronic acid] | >64 µg/mL | 64 µg/mL | 64 µg/mL | 32 µg/mL | >64 µg/mL | 64 µg/mL | 32 µg/mL | >64 µg/mL | >64 µg/mL | 64 µg/mL | >64 µg/mL | <=0.06 μg/ml | >64 µg/mL | >64 µg/mL | >64 µg/mL | 8 µg/mL | >64 µg/mL | >64 µg/mL | >64 µg/mL | >64 µg/mL | 
CC(C)C(NC(=O)NC(C(=O)NC(C(=O)NCCCNC(C(=O)O)C(OC1CC(O)C(CN)O1)C1OC(n2ccc(=O)[nH]c2=O)C(O)C1O)C(O)C(C)C)C1CCNC(=N)N1)C(=O)O [AA-896-C3, 5-O-[5-Amino-2,5-dideoxy-β-D-ribofuranosyl]-6-[[3-[2-[2-[[(1-carboxy-2-methylpropyl)-carbamoyl]amino]-2-(hexahydro-2-iminopyrimidin-4-yl)acetamido]-3-hydroxy-4-methyl-pentanamido]propyl]amino]-1,6-dideoxy-1-(3,4-dihydro-2,4-dioxopyrimidin-1(2H)-yl)-β-D-heptofuranuronic acid] | >32 µg/mL | 16 µg/mL | >32 µg/mL | >32 µg/mL | >32 µg/mL | 32 µg/mL | 32 µg/mL | >32 µg/mL | >32 µg/mL | 16 µg/mL | >32 µg/mL | 0.5 µg/mL | >32 µg/mL | >32 µg/mL | >32 µg/mL | 8 µg/mL | >32 µg/mL | 32 µg/mL | >32 µg/mL | >32 µg/mL | 
CC(C)CCCCC(=O)OC(C(C)C)C(NC(=O)C(NC(=O)NC(C(=O)O)C(C)C)C1CCNC(=N)N1)C(=O)NCCCNC(C(=O)O)C(OC1OC(CN)C(O)C1O)C1OC(n2ccc(=O)[nH]c2=O)C(O)C1O [AA-896-B7, 5-O-[5-Amino-5-deoxy-β-D-ribofuranosyl]-6-[[3-[2-[2-[[(1-carboxy-2-methylpropyl)-carbamoyl]amino]-2-(hexahydro-2-iminopyrimidin-4-yl)acetamido]-4-methyl-3-[(6-methylheptanoyl)oxy]pentanamido]propyl]amino]-1,6-dideoxy-1-(3,4-dihydro-2,4-dioxopyrimidin-1(2H)-yl)-β-D-heptofuranuronic acid] | >64 µg/mL | >64 µg/mL | >64 µg/mL | 64 µg/mL | >64 µg/mL | >64 µg/mL | 64 µg/mL | >64 µg/mL | >64 µg/mL | >64 µg/mL | >64 µg/mL | <=0.06 μg/ml | >64 µg/mL | >64 µg/mL | >64 µg/mL | 16 µg/mL | >64 µg/mL | >64 µg/mL | >64 µg/mL | >64 µg/mL | 
COC1C(OC(C(NCCCNC(=O)C(NC(=O)C(NC(=O)NC(C(=O)O)C(C)C)C2CCNC(=N)N2)C(OC(=O)CCCCCC(C)C)C(C)C)C(=O)O)C2OC(n3ccc(=O)[nH]c3=O)C(O)C2O)OC(CN)C1O [AA-896-B4, 5-O-[5-Amino-5-deoxy-2-O-methyl-β-D-ribofuranosyl]-6-[[3-[2-[2-[[(1-carboxy-2-methyl-propyl)carbamoyl]amino]-2-(hexahydro-2-iminopyrimidin-4-yl)acetamido]-4-methyl-3-[(7-methyloctanoyl)oxy]pentanamido]propyl]amino]-1,6-dideoxy-1-(3,4-dihydro-2,4-dioxopyrimidin-1(2H)-yl)-β-D-heptofuranuronic acid] | >64 µg/mL | 32 µg/mL | 32 µg/mL | 16 µg/mL | 64 µg/mL | 64 µg/mL | 8 µg/mL | 64 µg/mL | 64 µg/mL | 32 µg/mL | >64 µg/mL | <=0.06 μg/ml |  | >64 µg/mL | 64 µg/mL | 8 µg/mL | >64 µg/mL | 64 µg/mL | >64 µg/mL | 64 µg/mL | Antimicrobial Activity (MIC) [21]: >64 µg/mL
